Measured values reported in PubChem BioAssay (NCI).
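A five-concentration, 48-hour dose response in 96-well plates underlies each endpoint, interpolated linearly between surrounding concentrations. GI50 is the concentration that inhibits growth by half. TGI is the concentration that stops growth completely.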

What was measured:
Experiment in all cases: NCI anticancer screen, dose series, 48 h
NCI-H460 lung = test system: NCI-H460 lung
SK-MEL-28 melanoma = test system: SK-MEL-28 melanoma
HOP-92 NSCLC = test system: HOP-92 NSCLC
RXF 393 renal = test system: RXF 393 renal
SF-295 CNS = test system: SF-295 CNS
SK-OV-3 ovarian = test system: SK-OV-3 ovarian
SK-MEL-5 melanoma = test system: SK-MEL-5 melanoma
U251 CNS = test system: U251 CNS
HCT-116 colon = test system: HCT-116 colon
HL-60(TB) leukemia = test system: HL-60(TB) leukemia

| Compound | GI50 (NCI-H460 lung) | TGI (NCI-H460 lung) | GI50 (SK-MEL-28 melanoma) | TGI (SK-MEL-28 melanoma) | GI50 (HOP-92 NSCLC) | TGI (HOP-92 NSCLC) | GI50 (RXF 393 renal) | TGI (RXF 393 renal) | GI50 (SF-295 CNS) | TGI (SF-295 CNS) | GI50 (SK-OV-3 ovarian) | TGI (SK-OV-3 ovarian) | GI50 (SK-MEL-5 melanoma) | TGI (SK-MEL-5 melanoma) | GI50 (U251 CNS) | TGI (U251 CNS) | GI50 (HCT-116 colon) | TGI (HCT-116 colon) | GI50 (HL-60(TB) leukemia) | TGI (HL-60(TB) leukemia) |
| --- | --- | --- | --- | --- | --- | --- | --- | --- | --- | --- | --- | --- | --- | --- | --- | --- | --- | --- | --- | --- |
| CCC1CCc2nc3sc(C(=O)Nc4ccccc4C)c(N)c3cc2C1 (stereo not given) | 0.627 µM | > 100 µM | 0.623 µM | > 100 µM | 0.637 µM | > 100 µM | 0.316 µM | 40.7 µM | 0.354 µM | > 100 µM | 0.855 µM | > 100 µM | 0.301 µM | > 100 µM | 0.648 µM | > 100 µM | 0.348 µM | > 100 µM | 0.214 µM | 0.617 µM |
| CSc1ccc(/C=C/c2ccnc3ccccc23)cc1 |  | 27.3 µM |  | 32.6 µM |  | 30.2 µM |  | 33 µM |  | 27.5 µM |  | 33.3 µM |  | 18.9 µM |  | 25.4 µM |  | 22.3 µM |  | 24.4 µM |
| COC(OC)[C@@H](C)[C@H](O)[C@](C)(O)C1OC(C)(C)OC(C(C)C=C(C)C)C1C (stereo not given in full) |  | > 100 µM |  | > 100 µM |  | > 100 µM |  | > 100 µM |  | > 100 µM |  | > 100 µM |  | > 100 µM |  | > 100 µM |  | > 100 µM |  | > 100 µM |
| Cn1c(=S)c2[nH]c(SCCN3CCCC3)nc2n(C)c1=O |  | > 100 µM |  | > 100 µM |  | > 100 µM |  | > 100 µM |  | > 100 µM |  | > 100 µM |  | > 100 µM |  | > 100 µM |  | > 100 µM |  | > 100 µM |
| O=C(NO)C(=O)Nc1ccc(Cl)cc1[N+](=O)[O-] |  | > 100 µM |  | > 100 µM |  | > 100 µM |  | > 100 µM |  | > 100 µM |  | > 100 µM |  | > 100 µM |  | > 100 µM |  | > 100 µM |  | > 100 µM |
| Cc1cc(C)c(S(=O)(=O)ONC(=O)OC(C)(C)C)c(C)c1 |  | > 100 µM |  | > 100 µM |  | > 100 µM |  | > 100 µM |  | > 100 µM |  | > 100 µM |  | > 100 µM |  | > 100 µM |  | > 100 µM |  | > 100 µM |
| CCN1C(=O)N(c2ccccc2)C2NN=c3s/c(=C4\C(=O)N(C(C)C)c5ccccc54)c(=O)n3C21 (stereo not given) | 1.16 µM | > 38.9 µM | 2.71 µM | > 100 µM | 1.44 µM | > 43.5 µM | 0.612 µM | 2.63 µM | 0.737 µM | 4.76 µM | 1.07 µM | > 100 µM | 1.04 µM | 15.5 µM | 1.44 µM | > 51.6 µM | 2.18 µM | 8.24 µM | 1.03 µM | > 23.6 µM |
| Cc1ccc(S(=O)(=O)Cc2nc(-c3ccc(C(=O)NCc4cccnc4)cc3)oc2C)cc1 | 0.843 µM | > 100 µM | 15.5 µM | > 100 µM | 13 µM | > 100 µM | 27.6 µM | > 100 µM | 9.34 µM | > 100 µM | 14.5 µM | > 100 µM | 2.85 µM | > 100 µM | 1.01 µM | > 76.7 µM | < 0.01 µM | > 100 µM | 1.97 µM | > 100 µM |
| COc1ccc(Cn2cc3c(c2-c2cc(OC)c(OC)c(OC)c2)CCc2cnoc2-3)cc1[N+](=O)[O-] | 0.721 µM | > 28.8 µM | 3.39 µM | > 100 µM | 1.07 µM | 60.6 µM | 1.02 µM | 6.22 µM | 0.328 µM | 2.09 µM | 1.08 µM | > 30.2 µM | 0.45 µM | > 71.6 µM | 1.2 µM | > 100 µM | 0.587 µM | > 100 µM | 0.412 µM | 7.98 µM |
| CCOC(=O)NC(=O)c1cn(CCN2CCN(C(=O)CCCCCCCCCCNc3ncnc4nc[nH]c34)CC2)c(=O)[nH]c1=O |  | > 100 µM |  | > 100 µM |  | > 100 µM |  | > 100 µM |  | > 100 µM |  | > 100 µM |  | > 100 µM |  | > 100 µM |  | > 100 µM |  | > 100 µM |
| CN(CCCl)c1ccc(/C=C/C2=[N+](C)c3ccccc3C2(C)C)cc1 | 0.679 µM | 10.6 µM | 0.685 µM | 15.6 µM | 0.288 µM | 2.2 µM | 1.57 µM | 10.5 µM | 0.728 µM | 5.14 µM | 0.713 µM | 5.41 µM | 0.532 µM | 2.03 µM | 0.253 µM | 11.2 µM | 0.307 µM | 12.2 µM | 0.265 µM | 0.756 µM |
| COc1ccc(C(=O)/C=C/c2ccc(OCC(=O)N3CCN(c4ccccc4)CC3)cc2)cc1 |  | > 100 µM |  | > 100 µM |  | 51.3 µM |  | 74 µM |  | 84.7 µM |  | 66 µM |  | > 85.1 µM |  | > 83.5 µM |  | > 100 µM |  | > 67.3 µM |
